Reference: ChEMBL document CHEMBL1141985, “Carbonic anhydrase inhibitors. Inhibition of the human cytosolic isozyme VII with aromatic and heterocyclic sulfonamides” (Bioorg Med Chem Lett, 2005)

Tests used:
[1] = molecular target: Carbonic anhydrase 7 (Homo sapiens, UniProt P43166)
Description: Ki value against human carbonic anhydrase VII

[2] = molecular target: Carbonic anhydrase 13 (Mus musculus, UniProt Q9D6N1)
Description: Ki value against murine carbonic anhydrase XIII

[3] = molecular target: Carbonic anhydrase 1 (Homo sapiens, UniProt P00915)
Chain of Carbonic anhydrase 1 (P00915 whole entry): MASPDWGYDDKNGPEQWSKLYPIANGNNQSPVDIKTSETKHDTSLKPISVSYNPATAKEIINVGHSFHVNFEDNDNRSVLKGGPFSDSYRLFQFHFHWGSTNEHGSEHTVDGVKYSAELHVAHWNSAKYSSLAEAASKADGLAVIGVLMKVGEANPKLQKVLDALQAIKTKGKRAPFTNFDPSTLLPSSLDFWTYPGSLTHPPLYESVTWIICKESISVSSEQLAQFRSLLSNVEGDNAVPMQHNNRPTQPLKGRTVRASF
Description: Ki value against human carbonic anhydrase I

Chain of Carbonic anhydrase 7 (P43166 whole entry): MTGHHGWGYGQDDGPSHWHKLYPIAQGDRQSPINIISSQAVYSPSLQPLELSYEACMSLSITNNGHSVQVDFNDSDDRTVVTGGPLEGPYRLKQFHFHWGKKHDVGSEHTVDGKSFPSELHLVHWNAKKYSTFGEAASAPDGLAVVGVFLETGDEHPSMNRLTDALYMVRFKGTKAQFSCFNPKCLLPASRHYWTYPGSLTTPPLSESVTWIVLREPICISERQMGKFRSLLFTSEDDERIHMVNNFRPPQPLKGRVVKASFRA
Chain of Carbonic anhydrase 13 (Q9D6N1 whole entry): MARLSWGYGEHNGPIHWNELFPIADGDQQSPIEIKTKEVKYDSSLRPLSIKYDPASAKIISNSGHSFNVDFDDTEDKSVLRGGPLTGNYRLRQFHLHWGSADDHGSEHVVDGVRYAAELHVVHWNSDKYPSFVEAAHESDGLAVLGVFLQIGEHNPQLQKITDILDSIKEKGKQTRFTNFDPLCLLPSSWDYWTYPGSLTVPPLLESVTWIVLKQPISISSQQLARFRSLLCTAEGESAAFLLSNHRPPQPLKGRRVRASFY

Ki [1] [nM]	Ki [2] [nM]	Structure (SMILES)	Ki [3] [nM]
7	–	Nc1ccc(S(=O)(=O)NC2NN=C(S(N)(=O)=O)S2)cc1 (stereo not given)	–
5.6	2	Nc1ccc(S(=O)(=O)NCc2ccc(S(N)(=O)=O)cc2)cc1	–
6.5	1.9	Nc1ccc(S(=O)(=O)NCCc2ccc(S(N)(=O)=O)cc2)cc1	–
75	–	NCc1ccc(S(N)(=O)=O)cc1 [MAFENIDE]	–
88	–	Cc1ccc(S(N)(=O)=O)cc1 [P-TOLUENESULFONAMIDE]	–
66	–	NS(=O)(=O)c1ccc(CCO)cc1	–
6.8	–	Nc1nccc(Nc2ccc(S(N)(=O)=O)cc2)n1	–
75	–	Nc1ccc(S(N)(=O)=O)cc1F	–
61	–	Nc1ccc(S(N)(=O)=O)cc1Br	–
60	–	NS(=O)(=O)c1ccc(CO)cc1	–
150	–	Nc1ccc(S(N)(=O)=O)cc1I	–
52	–	NS(=O)(=O)c1ccc(C(=O)O)cc1 [CARZENIDE]	–

Continued, molecule first:

Structure (SMILES)	Ki [1] [nM]	Ki [2] [nM]	Ki [3] [nM]
Nc1ccc(S(N)(=O)=O)cc1Cl	120	–	–
Cn1nc(S(N)(=O)=O)sc1=N	4.3	–	–
Nc1ccccc1S(N)(=O)=O	45	–	–
NS(=O)(=O)c1nnc(-c2ccccc2Cl)s1	5.4	–	690
Nc1nnc(S(N)(=O)=O)s1	5.2	–	–
NNc1ccc(S(N)(=O)=O)cc1	89	–	28000
NS(=O)(=O)c1nc2ccccc2s1	4	–	–
Nc1ccc(S(N)(=O)=O)cc1 [SULFANILAMIDE]	70	–	–
NNc1ccccc1S(N)(=O)=O	68	–	–
